Measurements published in patent publication US4256729A, “N,N'-Bis-(2,3-dihydroxypr opyl)-2,4,6-triiodo-5-(2-keto-L-gulonamido)isophthalamide and radiological compositions containing same” (Mallinckrodt, Inc., priority 1979, dated 1981).
Where two headings read alike, the source gives them in different places.

Columns and labels:
[1] = test system: cardiovascular and renal excretory systems; experiment: Radiographic observations in mouse (whole body radiographs after i.v. injection); assay type: in vivo; details: male mouse, pentobarbital anesthetized; 10,000 mg I/kg i.v. (28% I solution), 1/2 ml/minute; immediately after administration; Method I product
Procedure: A male mouse (20 g) was anesthetized with sodium pentobarbital (60 mg/kg, i.p.; Diabutal®, Diamond Laboratories).

Solubility in water = assay type: physicochemical
Procedure: (§1) The product was dissolved in water (sterile water for injection, 1 liter). The solution was evaporated to about 800 ml under reduced pressure at 55° and treated with active charcoal (Darco G-60, 7.0 g) at room temperature overnight. The solution was filtered (first through a Whatman #4 filter paper and then through a Millipore 0.22 μ filter paper), and the clear filtrate was evaporated under reduced pressure at 50°-60° to give a white glassy solid. The product, which was dried under vacuum at 50°-60° for 5 hours, weighed 53.0 g (60% yield). The compound softens at 190°-195° and decomposes above 220°. […] Nmr and ir data are consistent with the assigned structure IX. Elemental analysis: Calcd. for C20 H26 I3 N3 O12 : C, 27.26; H, 2.97; I, 43.21; N, 4.77; Found: C, 26.92; H, 3.15; I, 42.92; N, 4.40.
2. Solubility: ≥100% w/v.

Swiss mice [2] = experiment: Acute Intracerebral Toxicity in Mice; details: intracerebral, 250-400 mg I/ml; seven day observation; 95% limits 1,203-1,772
Procedure: (§2) The following pharmacological studies were conducted on N,N'-bis-(2,3-dihydroxypropyl)-2,4,6-triiodo-5-(2-keto-L-gulonamido)isophthalamide prepared by Method II (PRODUCT).
(§3) Employing a slightly modified version of the techique developed by Haley and McCormick (Brit. J. Pharmacol. 12: 12-15, 1957), young adult male and female Swiss mice received injections of a solution of the PRODUCT directly into lateral ventricles and brain tissue.

in vivo [3] = details: mouse, in vivo, icv or intrathecal
Procedure: as §2, §3

dogs = experiment: Acute intracisternal Neurotoxicity in Dogs; assay type: in vivo; details: dosage range 200-244 mg I/kg, constant 0.5 ml/kg volume dose
Procedure: Adult dogs of either sex were employed for this procedure and were briefly anesthetized with thiopentol sodium during the injection of a solution of the compound. The PRODUCT was administered into cerebrospinal fluid at the cisterna magna at varying concentrations but at a constant 0.5 ml/kg volume dose. Animals were thereafter observed for neurotoxicity with the following results.

[4] = Stability in aqueous solution by tlc and lc analysis; assay type: physicochemical; details: Method I product
Procedure: as §1

Swiss mice [5] = experiment: Acute Intraveneous Toxicity in Mice; details: i.v., 1 ml/min, 400 mg I/ml; seven day observation; 95% limits 18,161-20,510
Procedure: as §2
(§4) A solution of the PRODUCT was injected into the lateral tail vein of young adult male and female Swiss mice at a rate of 1 ml/min.

in vivo [6] = details: mouse, in vivo, iv
Procedure: as §2, §4

[7] = test system: cisterna magna, basal cisterns, and cervical subarachnoid space; experiment: Radiographic observations in rat (lateral radiographs of head and thorax after intracisternal injection); assay type: in vivo; details: male rat, pentobarbital anesthetized; 140 mg I/kg intracisternally (28% I solution); immediately and 3 minutes after administration; Method I product
Procedure: A pentobarbital anesthetized male rat received 140 mg I/kg of the N,N'-bis-(2,3-dihydroxypropyl)-2,4,6-triiodo-5-(2-keto-L-gulonamido)isophthalamide prepared by Method I, (28% I solution) intracisternally.

Sprague Dawley rats = experiment: Acute Intracisternal Toxicity in Rats; details: intracisternal, 444 mg I/ml; two day observation; 95% limits 582-951
Procedure: as §2
(§5) The technique described by Melartin et al. (Invest. Radiol. 5: 13-21, 1970) was utilized to evaluate lethal effects of a solution of the PRODUCT after injection into cerebrospinal fluid at the cisterna magna. Young adult male and female Sprague Dawley rats were used. After dosing, the animals were housed individually and observed for immediate reactions and periodically for a two day observation period.

in vivo [8] = details: rat, in vivo
Procedure: as §2, §5

Compound: O=C(Nc1c(I)c(C(=O)NCC(O)CO)c(I)c(C(=O)NCC(O)CO)c1I)C(=O)[C@@H](O)[C@H](O)[C@@H](O)CO (stereo partly drawn) [IX, N,N'-Bis-(2,3-dihydroxypropyl)-2,4,6-triiodo-5-(2-keto-L-gulonamido)isophthalamide]
- opacification on whole body radiographs [1]: opacification of the cardiovascular and renal excretory systems
- solubility (Solubility in water; Method II product): ≥ 100 % w/v
- solubility (Solubility in water; water, Method I product, read-out: solubility in water): ≥ 1000 mg/mL
- LD50 /(95% Confidence Limits) (Swiss mice [2]): 1,460 mg I/kg
- LD50 at 168 h (in vivo [3]): 3380 mg/kg
- Minimum Convulsion Dose (dogs): > 244 mg I/kg
- stability in aqueous solution [4]: stable in aqueous solution
- LD50 /(95% Confidence Limits) (Swiss mice [5]): 19,300 mg I/kg
- LD50 at 168 h (in vivo [6]): 44700 mg/kg
- visualization on lateral radiographs of head and thorax [7]: good visualization of the cisterna magna, basal cisterns, and cervical subarachnoid space
- LD50 /(95% Confidence Limits) (Sprague Dawley rats): 744 mg I/kg
- LD50 at 48 h (in vivo [8]): 1720 mg/kg
